These results are taken from ChEMBL document CHEMBL1201862, “PubChem BioAssay data set” (2004).

Common to all, as to assay: inhibition of tumour cell growth, NCI panel, 48 h
Assay [1] concerns NCI-H522.
The test system of assay [2] is OVCAR-4.
Assay [3] has as its system CAKI-1.
In assay [4] the test system is HT-29.
The test system of assay [5] is CCRF-CEM.
Assay [6] deals with SK-MEL-5.
Assay [7] relates to MDA-MB-231.
Assay [8] deals with OVCAR-3.
Assay [9] concerns UACC-62.
The subject of assay [10] is SK-MEL-2.
Assay [11] relates to T47D.
Assay [12] has as its system KM12.
Assay [13] deals with M14.
Assay [14] concerns IGROV-1.
Assay [15] concerns BT-549.
The test system of assay [16] is TK-10.
The test system of assay [17] is SN12C.
The test system of assay [18] is SNB-75.
Assay [19] has as its system Malme-3M.
Assay [20] concerns RXF 393.

Each structure is given as a SMILES string. Where “and” joins values, the source holds several entries; their conditions need not be identical. Identical values can stand only once.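 Method: 48-hour compound exposure of cells in 96-well plates, five concentrations, linear interpolation of endpoints. Here, GI50 denotes the concentration required for 50% inhibition of growth.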 Calls of active or inactive are those of the source. Rule as the data show it: active = GI50 up to about 1.1 µM and inactive = higher. Some results are limits rather than exact numbers.

As to `COC(=O)Nc1cc(OCCCOC(C)=O)c2[nH]c(C(=O)OC)cc2c1C[C@H](O)CO`, the GI50 in [1] was 2.94 µM (inactive); in [2], > 100 µM (inactive); in assay [3], > 100 µM (inactive); in assay [4] it was > 100 µM (inactive); in assay [5] it was > 100 µM (inactive); in [6], > 100 µM (inactive). Moreover, the GI50 in [7], in assay [8], in assay [9], in assay [10], in [11] and in [12] was > 100 µM (inactive) in each case. In addition, the GI50 in [13] was > 100 µM (inactive); in assay [14], 90.4 µM (inactive); in assay [15] it was 54.7 µM (inactive); in assay [16], > 100 µM (inactive); in assay [17] it was > 100 µM (inactive).
Take `CC(C)(C)N1CSC(=S)N(Cc2ccco2)C1`: the GI50 in assay [1] was 3.27 µM (inactive); in assay [2], 12.1 µM (inactive); in assay [3], 2.83 µM (inactive); in [4] it was 3.27 µM (inactive); in assay [5], 1.08 µM (active); in [6], 3.61 µM (inactive). Also, the GI50 in assay [18] was 12.8 µM (inactive); in assay [8] it was 1.94 µM (inactive); in assay [19], 4.16 µM (inactive); in assay [20], 5.87 µM (inactive); in assay [9], 7.05 µM (inactive); in assay [10], 3.55 µM (inactive). Further, the GI50 is 5.64 µM (inactive) in [11]; 2.7 µM (inactive) in assay [12]; 2.46 µM (inactive) in assay [13]; 2.55 µM (inactive) in [14]; 2.79 µM (inactive) in assay [15]; 3.04 µM (inactive) in [16]. For the same compound, the GI50 in assay [17] is 4.35 µM (inactive).
For `O=NC1c2cccc3cccc(c23)C1N=O` (centres undefined), the GI50 in assay [1] was 1.93 µM (inactive); in assay [2], 1.59 µM (inactive); in [3], 2.77 µM (inactive); in assay [4], 10.9 µM (inactive); in assay [5] it was 1.19 µM (inactive); in assay [6], 14 µM (inactive). Also, the GI50 in assay [18] was 9.79 µM (inactive); in assay [8] it was 2.69 µM (inactive); in [20] it was 3.51 µM (inactive); in [11], 17 µM (inactive); in [12] it was 3.89 µM (inactive); in assay [13], 12 µM (inactive). Further, the GI50 is 1.08 µM (active) in [14], 4.21 µM (inactive) in assay [15] and 10.2 µM (inactive) in assay [16].
As to `CC(C)(C)OC(=O)NC(Cc1ccc(O)cn1)C(=O)O` (centres undefined), the GI50 in assay [1] was > 100 µM (inactive); in assay [2], > 100 µM (inactive); in assay [3], > 100 µM (inactive); in [4], > 100 µM (inactive); in assay [5] it was > 10 µM (inactive); in assay [6], > 100 µM (inactive). Further, the GI50 in assay [18], in [7], in assay [8], in assay [19], in assay [20] and in [12] was > 100 µM (inactive) each time. The GI50 in [14], in [15], in assay [16] and in assay [17] was > 100 µM (inactive) in each case.
In the case of `COc1ccc(/C=C2/N/C(=N\N=C/C(O)C(O)C(O)CO)NC2=O)cc1` (centres undefined), the GI50 in assay [3] was > 100 µM (inactive); in assay [4], > 100 µM (inactive) and 63.7 µM (inactive); in [5] it was 63 µM (inactive) and 53 µM (inactive); in assay [7], 91 µM (inactive); in assay [19] it was > 100 µM (inactive); in assay [20] it was > 100 µM (inactive). Also, the GI50 in [10] was > 100 µM (inactive); in [13] it was 51.8 µM (inactive); in assay [14], > 100 µM (inactive) and 76.7 µM (inactive); in [15] it was 55.8 µM (inactive) and 28 µM (inactive); in assay [16] it was > 100 µM (inactive); in assay [17] it was > 100 µM (inactive).
With `CCCCC(C)(C/C=C/[C@@H]1[C@@H](C(O)CCCCCC(=O)OC)C(=O)C[C@H]1O[Si](C)(C)C(C)(C)C)O[Si](C)(C)C` (some centres undefined), the GI50 in [1] was 23.2 µM (inactive); in [2], 86.7 µM (inactive); in [3] it was 38.4 µM (inactive); in assay [4], 78.5 µM (inactive); in assay [5], 25.8 µM (inactive); in assay [6], 92.7 µM (inactive). Besides, the GI50 in assay [18] is 56.2 µM (inactive); in assay [7], > 100 µM (inactive); in assay [8] it was 91 µM (inactive); in assay [19], > 100 µM (inactive); in [20], 54.2 µM (inactive); in assay [9], 91.8 µM (inactive). Further, the GI50 in assay [10] is 58.7 µM (inactive); in assay [12], 58.3 µM (inactive); in [13], > 100 µM (inactive); in assay [14], > 100 µM (inactive); in assay [15] it was > 100 µM (inactive); in assay [16], 97.7 µM (inactive). Moreover, the GI50 in assay [17] was > 100 µM (inactive).
`CN(C)CCNC(=O)c1cccc(C(=O)Nc2ccccc2)c1[N+](=O)[O-]`: the GI50 was > 100 µM (inactive) in assay [1]; > 100 µM (inactive) in assay [3]; 71.8 µM (inactive) in [4]; > 100 µM (inactive) in assay [5]; > 100 µM (inactive) in [6]; 34.8 µM (inactive) in [18]. Moreover, the GI50 was > 100 µM (inactive) in [7]; > 100 µM (inactive) in assay [8]; 48.5 µM (inactive) in assay [19]; > 100 µM (inactive) in assay [9]; > 100 µM (inactive) in [10]; > 100 µM (inactive) in assay [11]. Moreover, the GI50 is > 100 µM (inactive) in assay [12]; > 100 µM (inactive) in [13]; > 100 µM (inactive) in assay [14]; 34 µM (inactive) in [15]; > 100 µM (inactive) in assay [16]; > 100 µM (inactive) in [17].
Consider `CCSCCCSCCSCC`, for which the GI50 was > 100 µM (inactive) in assay [1]; 81.5 µM (inactive) in [2]; > 100 µM (inactive) in [4]; > 100 µM (inactive) in assay [5]; > 100 µM (inactive) in assay [6]; > 100 µM (inactive) in assay [18]. Moreover, the GI50 in assay [7], in assay [8], in assay [9], in assay [11], in assay [12] and in assay [13] was > 100 µM (inactive) throughout. Also, the GI50 in assay [14], in [15], in assay [16] and in assay [17] was > 100 µM (inactive) in each case.
For `O=C1/C(=C/c2cccc([N+](=O)[O-])c2)Cc2ccccc21`, the GI50 was 59.3 µM (inactive) in [1]; 75 µM (inactive) in [2]; > 100 µM (inactive) in assay [3]; > 100 µM (inactive) in assay [4]; > 100 µM (inactive) in assay [5]; > 100 µM (inactive) in assay [18]. Besides, the GI50 is > 100 µM (inactive) in assay [7]; > 100 µM (inactive) in [8]; > 100 µM (inactive) in assay [19]; > 100 µM (inactive) in [9]; > 100 µM (inactive) in assay [10]; 86.5 µM (inactive) in assay [12]. In addition, the GI50 in assay [13], in assay [14], in [15], in assay [16] and in assay [17] was > 100 µM (inactive) each time.
For `N[C@H](CCC(=O)NCP(=O)(O)O)C(=O)O`, the GI50 in assay [1], in assay [4], in assay [6], in assay [7], in assay [8] and in [19] was > 100 µM (inactive) in each case. The GI50 in assay [9], in assay [10], in [11], in assay [12], in assay [14] and in assay [15] was > 100 µM (inactive) throughout. In addition, the GI50 is 10.5 µM (inactive) in [16] and > 100 µM (inactive) in [17].
Take `Nc1nc(N)c2nc(CNc3ccc(C(=O)NC(CCCCNC(=O)c4ccccc4C(=O)O)C(=O)O)cc3)cnc2n1` (centres undefined): the GI50 in [1] was 5.38 µM (inactive); in assay [2], > 100 µM (inactive); in [3] it was 0.01 µM (active); in [4] it was 0.01 µM (active); in [5], 0.01 µM (active); in [6] it was < 0.0119 µM (active). The GI50 in assay [8] was > 100 µM (inactive); in assay [19] it was 3.61 µM (inactive); in assay [20] it was 0.01 µM (active); in assay [9], 0.01 µM (active); in assay [10], 68.4 µM (inactive); in [11] it was 0.01 µM (active). In addition, the GI50 was 0.01 µM (active) in assay [12]; 0.01 µM (active) in [13]; < 0.0113 µM (active) in [14]; > 100 µM (inactive) in assay [15]; 0.173 µM (active) in assay [16]; 0.01 µM (active) in [17].
With `COC(=O)CCCc1ccc2c(c1)CCC2`, the GI50 in assay [1] is 92.3 µM (inactive); in assay [2], > 100 µM (inactive); in assay [3], > 100 µM (inactive); in assay [5], > 100 µM (inactive); in assay [6], > 100 µM (inactive); in assay [18], > 100 µM (inactive). In addition, the GI50 in [7], in assay [8], in assay [19], in [9], in assay [10] and in assay [11] was > 100 µM (inactive) each time. Also, the GI50 in [12], in assay [13], in [14], in assay [15], in [16] and in assay [17] was > 100 µM (inactive) in each case.
